Counter-ions that a name gives are not always drawn.
How the values were obtained:
Serratia 301HT6 = experiment: MIC, micro-dilution in liquid medium, β-lactamine with product at 5 mg/l; assay type: cell-based; details: compound at 5 mg/l; Trial 10, 301HT6 Serratia; 24 hours at 37° C.
In short: (§1)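 Strains were seeded into liquid-medium dilutions of β-lactamine, each supplemented with a fixed 5 mg/l of test compound, and held 24 hours at 37° C in a heating chamber. Minimal inhibitory concentration was the level at which bacterial development was wholly absent.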

E. coli 250BE1 (SHV4) = experiment: as above; assay type: cell-based; details: compound at 5 mg/l, 24 hours at 37° C.; for MIC of Cefotaxime in combination with the compound: Trial 7, 250BE1 E. coli SHV4; for MIC of Piperacillin in combination with the compound: Trial 7, 250BE1 SHV4
In short: as §1

E. coli 250HT26 (SHV1) = experiment: as above; assay type: cell-based; details: compound at 5 mg/l, 24 hours at 37° C.; for MIC of Cefotaxime in combination with the compound: Trial 6, 250HT26 E. coli SHV1; for MIC of Piperacillin in combination with the compound: Trial 6, 250HT26 SHV1
In short: as §1

[1] = test system: E. coli 250HT23 (Class D); experiment: as above; assay type: cell-based; details: compound at 5 mg/l, 24 hours at 37° C.; for MIC of Piperacillin in combination with the compound: Trial 8, 250HT23 Class D; for MIC of Cefotaxime in combination with the compound: Trial 8, 250HT23 E. coli Class D
In short: as §1

E. coli 250SJ1 (Tem7) = experiment: as above; assay type: cell-based; details: compound at 5 mg/l, 24 hours at 37° C.; for MIC of Cefotaxime in combination with the compound: Trial 5, 250SJ1 E. coli Tem7; for MIC of Piperacillin in combination with the compound: Trial 5, 250SJ1 Tem7
In short: as §1

[2] = test system: P. aeruginosa 391HT7 (PSE); experiment: as above; assay type: cell-based; details: compound at 5 mg/l, 24 hours at 37° C.; for MIC of Cefotaxime in combination with the compound: Trial 11, 391HT7 P. aeruginosa PSE; for MIC of Piperacillin in combination with the compound: Trial 11, 391HT7 PSE
In short: as §1

E. coli 250HT21 (Tem1) = experiment: as above; assay type: cell-based; details: compound at 5 mg/l, 24 hours at 37° C.; for MIC of Cefotaxime in combination with the compound: Trial 2, 250HT21 E. coli Tem1; for MIC of Piperacillin in combination with the compound: Trial 2, 250HT21 Tem1
In short: as §1

E. coli 250HT22 (Tem2) = experiment: as above; assay type: cell-based; details: compound at 5 mg/l, 24 hours at 37° C.; for MIC of Cefotaxime in combination with the compound: Trial 3, 250HT22 E. coli Tem2; for MIC of Piperacillin in combination with the compound: Trial 3, 250HT22 Tem2
In short: as §1

[3] = test system: S. aureus 011GO66 (PeniR); experiment: as above; assay type: cell-based; details: compound at 5 mg/l, 24 hours at 37° C.; for MIC of Cefotaxime in combination with the compound: Trial 1, 011GO66 S. aureus PeniR; for MIC of Piperacillin in combination with the compound: Trial 1, 011GO66 peniR
In short: as §1

[4] = test system: P. aeruginosa 391HT8 (PSE); experiment: as above; assay type: cell-based; details: compound at 5 mg/l, 24 hours at 37° C.; for MIC of Cefotaxime in combination with the compound: Trial 12, 391HT8 P. aeruginosa PSE; for MIC of Piperacillin in combination with the compound: Trial 12, 391HT8 PSE
In short: as §1

[5] = test system: E. cloacae 293HT6 (Class C); experiment: as above; assay type: cell-based; details: compound at 5 mg/l, 24 hours at 37° C.; for MIC of Piperacillin in combination with the compound: Trial 9, 293HT6 Class; for MIC of Cefotaxime in combination with the compound: Trial 9, 293HT6 E. cloacae Class C
In short: as §1

β-lactamase TEM1 = molecular target: T1, β-lactamase TEM1 (Escherichia coli, UniProt P62593); experiment: Inhibition of isolated β-lactamase Tem-1 (Nitrocefin hydrolysis); assay type: biochemical, E.coli 250HT21; details: 100 μM Nitrocefin, 50 mM sodium phosphate buffer pH7.0, 37° C.
T1 construct: The β-lactamases are isolated from bacterial strains which are resistant to penicillins and cephalosporins; endogenous in cells; host or cells: E. coli 250HT21 (natural producer; French-press lysate, 100,000 g supernatant)
In short: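 TEM-1 from soluble extract of E. coli 250HT21, normalized enzyme, 100 μM Nitrocefin in 50 mM sodium phosphate pH 7.0 at 37 °C. Initial-rate hydrolysis read kinetically at 485 nm, with and without 5 min enzyme–inhibitor preincubation. CI50 from 6 or 8 concentrations in duplicate.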

E. coli 250CF1 (Tem3) = experiment: microbe, parasite or virus in culture; assay type: cell-based; details: compound at 5 mg/l, 24 hours at 37° C.; for MIC of Cefotaxime in combination with the compound: Trial 4, 250CF1 E. coli Tem3; for MIC of Piperacillin in combination with the compound: Trial 4, 250CF1 Tem3
In short: as §1

β-lactamase P99 = molecular target: T2, β-lactamase P99 (Enterobacter cloacae, UniProt P05364); experiment: biochemical
T2 construct: The β-lactamases are isolated from bacterial strains which are resistant to penicillins and cephalosporins; endogenous in cells; host or cells: Enterobacter cloacae 293HT6 (natural producer; French-press lysate, 100,000 g supernatant)
In short: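 P99 β-lactamase, taken from the soluble fraction of an Enterobacter cloacae 293HT6 lysate, was assayed at 37° C. in 50 mM sodium phosphate buffer pH7.0 with 100 μM Nitrocefin as the chromogenic substrate. Hydrolysis was followed kinetically at 485 nm at initial speed, with and without a 5 mn enzyme–inhibitor preincubation. Inhibitors were tested at 6 or 8 concentrations in duplicate, and IC50 was fitted with GraFit.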

T2 sequence (P05364 21-381): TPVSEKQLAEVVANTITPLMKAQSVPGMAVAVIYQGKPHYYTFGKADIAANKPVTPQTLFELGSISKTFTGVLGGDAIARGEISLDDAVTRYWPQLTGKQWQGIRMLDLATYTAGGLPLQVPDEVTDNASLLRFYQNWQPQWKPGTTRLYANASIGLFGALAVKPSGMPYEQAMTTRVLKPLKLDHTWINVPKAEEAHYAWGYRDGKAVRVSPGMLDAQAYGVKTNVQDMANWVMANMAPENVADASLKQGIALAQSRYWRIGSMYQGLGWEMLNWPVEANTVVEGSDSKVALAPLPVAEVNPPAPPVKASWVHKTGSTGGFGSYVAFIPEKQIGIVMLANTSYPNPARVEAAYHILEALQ
T1 sequence (P62593 24-286 limits assumed): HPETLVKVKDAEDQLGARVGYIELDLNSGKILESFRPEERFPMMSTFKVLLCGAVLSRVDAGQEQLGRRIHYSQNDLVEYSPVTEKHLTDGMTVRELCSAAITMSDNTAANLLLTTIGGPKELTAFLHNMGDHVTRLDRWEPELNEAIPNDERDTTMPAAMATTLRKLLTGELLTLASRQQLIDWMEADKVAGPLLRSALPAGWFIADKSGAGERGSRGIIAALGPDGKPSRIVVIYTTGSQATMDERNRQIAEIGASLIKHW

Compound	MIC of Cefotaxime in combination with the compound (Serratia 301HT6)	MIC of Piperacillin in combination with the compound (Serratia 301HT6) [µg/mL]	MIC of Cefotaxime in combination with the compound (E. coli 250BE1 (SHV4))	MIC of Piperacillin in combination with the compound (E. coli 250BE1 (SHV4)) [µg/mL]	MIC of Cefotaxime in combination with the compound (E. coli 250HT26 (SHV1))	MIC of Piperacillin in combination with the compound (E. coli 250HT26 (SHV1)) [µg/mL]	MIC of Piperacillin in combination with the compound [1] [µg/mL]	MIC of Cefotaxime in combination with the compound [1]	MIC of Cefotaxime in combination with the compound (E. coli 250SJ1 (Tem7))	MIC of Piperacillin in combination with the compound (E. coli 250SJ1 (Tem7)) [µg/mL]	MIC of Cefotaxime in combination with the compound [2] [µg/mL]	MIC of Piperacillin in combination with the compound [2] [µg/mL]	MIC of Cefotaxime in combination with the compound (E. coli 250HT21 (Tem1))	MIC of Piperacillin in combination with the compound (E. coli 250HT21 (Tem1)) [µg/mL]	MIC of Cefotaxime in combination with the compound (E. coli 250HT22 (Tem2))	MIC of Piperacillin in combination with the compound (E. coli 250HT22 (Tem2)) [µg/mL]	MIC of Cefotaxime in combination with the compound [3] [µg/mL]	MIC of Piperacillin in combination with the compound [3] [µg/mL]	MIC of Cefotaxime in combination with the compound [4] [µg/mL]	MIC of Piperacillin in combination with the compound [4] [µg/mL]	further results
O=C(NCc1cccnc1)C1CCC2CN1C(=O)N2OS(=O)(=O)O (stereo not drawn) [Example 43, sodium salt of trans-7-oxo-N-(3-pyridinylmethyl)-6-(sulphooxy)-1,6-diazabicyclo[3.2.1]octane-2-carboxamide]	<=0.04 μg/ml	0.6	<=0.04 μg/ml	10	<=0.04 μg/ml	5	2.5	<=0.04 μg/ml	<=0.04 μg/ml	5	20	>40	<=0.04 μg/ml	1.2	<=0.04 μg/ml	1.2	2.5	1.2	20	>40	MIC of Piperacillin in combination with the compound [5]: 2.5 µg/mL; MIC of Cefotaxime in combination with the compound [5]: 0.08 µg/mL; IC50 (β-lactamase TEM1): 31 nM; MIC of Cefotaxime in combination with the compound (E. coli 250CF1 (Tem3)): 0.08 µg/mL; MIC of Piperacillin in combination with the compound (E. coli 250CF1 (Tem3)): 2.5 µg/mL; IC50 (β-lactamase P99): 76 nM
NC(=O)C(Cc1ccccc1)NC(=O)C1CCC2CN1C(=O)N2OS(=O)(=O)O (stereo not drawn) [Example 44, sodium salt of trans-N-(1-amino-1-oxo-3-phenyl-2-propyl)-7-oxo-6-(sulphooxy)-1,6-diazabicyclo[3.2.1]octane-2-carboxamide]	10 µg/mL	>40	0.6 µg/mL	>40	0.08 µg/mL	>40	40	<=0.04 μg/ml	0.08 µg/mL	>40	>40	>40	<=0.04 μg/ml	5	0.15 µg/mL	>40	2.5	2.5	>40	>40	MIC of Piperacillin in combination with the compound [5]: >40 µg/mL; MIC of Cefotaxime in combination with the compound [5]: >40 µg/mL; IC50 (β-lactamase TEM1): 59 nM; MIC of Cefotaxime in combination with the compound (E. coli 250CF1 (Tem3)): 0.3 µg/mL; MIC of Piperacillin in combination with the compound (E. coli 250CF1 (Tem3)): 40 µg/mL; IC50 (β-lactamase P99): 100 nM

— US7612087B2, “Heterocyclic compounds as inhibitors of beta-lactamases” (Novexel, priority 2002, dated 2009)
